From US20260193236A1 (Protego Biopharma, Inc., priority 2022, published 2026)

Tested on: IRE1-XBP1s (XBP1-RLuc splicing reporter in HEK293 T-REx cells)
Assay: IRE1-XBP1s activation assay (XBP1-RLuc splicing reporter, HEK293 T-REx cells, luminescence relative to thapsigargin)
Type: cell-based
Settings: 18 h, compound 10 μM, HEK293 T-REx XBP1-RLuc reporter cells, relative to thapsigargin (Tg) 500 nM, read-out: Activity (IRE1-XBP1s activation, luminescence as % signal relative to thapsigargin, % Tg)
Description: IRE1-XBP1s activation Assay: HEK293 T-REx cells stably expressing the XBP1-RLuc splicing reporter were treated with an IRE1-XBP1s activator provided herein (10 μM) in the presence or absence of the IRE1 active site inhibitor 4μ8C (32 μM) for 18 h. Luminescence was shown as the percentage signal relative to thapsigargin (Tg) (500 nM, 18 h).

SMILES | activation at 10 µM [%]
Cc1ccc(OCCN(C)C(=O)Cn2cc(NC(=O)CCNc3cccc(C)n3)cn2)cc1 [Compound 160] | 30 to 50
Cc1ccc(OCCN(C)C(=O)Cn2cc(NC(=O)/C=C/Oc3c(Cl)ccnc3C)cn2)cc1 [Compound 115] | < 30
Cc1ccc(OCCC(=O)Nc2cnn(CC(=O)N(C)CCOc3ccc(F)c(F)c3)c2)c(F)c1 [Compound 70] | < 30
Cc1ccc(OCCN(C)C(=O)Cn2cc(NC(=O)[C@@H](C)CNc3ccc(F)nc3C)cn2)cc1 [Compound 220] | 30 to 50
Cc1ccc(OCCN(C)C(=O)Cn2cc(NC(=O)CCNc3cc(C)nc(C)c3)cn2)cc1 [Compound 123, 3-((2,6-dimethylpyridin-4-yl)amino)-N-(1-(2-(methyl(2-(p-tolyloxy)ethyl)amino)-2-oxoethyl)-1H-pyrazol-4-yl)propanamide] | 30 to 50
Cc1ccc(OCCN(C)C(=O)Cn2cc(NC(=O)CC(C)(C)Nc3nccc(F)n3)cn2)cc1 [Compound 218, 3-((4-fluoropyrimidin-2-yl)amino)-3-methyl-N-(1-(2-(methyl(2-(p-tolyloxy)ethyl)amino)-2-oxoethyl)-1H-pyrazol-4-yl)butanamide] | > 50
C#CCCC1(CCC(=O)Nc2ccc(OCCC(=O)Nc3cnn(CC(=O)N(C)CCOc4ccc(C)cc4)c3)nc2)N=N1 [Compound 234] | > 50
Cc1ccc(OC[C@@H](C)N(C)C(=O)Cn2cc(NC(=O)CCNc3nccc(F)n3)cn2)cc1 [Compound 270] | 30 to 50
Cc1ccc(OCCN(C)C(=O)Cn2cc(NC(=O)CCNc3ccnc(Br)c3)cn2)cc1 [Compound 135] | 30 to 50
Cc1ccc(OCCN(C)C(=O)Cn2cc(NC(=O)CCOc3cncc(N)c3)cn2)cc1 [Compound 235] | < 30
Cc1ccc(OCCN(C)C(=O)Cn2cc(NC(=O)OC3CCCN(c4ccnc(F)n4)C3)cn2)cc1 (centres unmarked) [Compound 201] | < 30
COc1cc(OCCN(C)C(=O)Cn2cc(NC(=O)CCNc3ncccn3)cn2)ccc1C [Compound 283] | < 30
Cc1ccc(OCCN(C)C(=O)Cn2cc(NC(=O)CCNc3ncccc3C#N)cn2)cc1 [Compound 141] | < 30
COc1cc(F)ccc1OCCN(C)C(=O)Cn1cc(NC(=O)CCNc2ncccn2)cn1 [Compound 282, N-(1-(2-((2-(4-fluoro-2-methoxyphenoxy)ethyl)(methyl)amino)-2-oxoethyl)-1H-pyrazol-4-yl)-3-(pyrimidin-2-ylamino)propanamide] | < 30
Cc1ccc(OCCN(C)C(=O)Cn2cc(NC(=O)CCOc3ccncc3[N+](=O)[O-])cn2)cc1 [Compound 111] | < 30
Cc1ccc(OCCN(C)C(=O)Cn2cc(NC(=O)CCNc3ncccc3F)cn2)cc1 [Compound 146] | 30 to 50
Cc1ccc(OCCN(C)C(=O)Cn2cc(NC(=O)CCOc3ccncc3N)cn2)cc1 [Compound 112] | 30 to 50
Cc1ccc(OCCN(C)C(=O)Cn2cc(NC(=O)CCNc3ccc4c(n3)OCO4)cn2)cc1 [Compound 286, 3-([1,3]dioxolo[4,5-b]pyridin-5-ylamino)-N-(1-(2-(methyl (2-(p-tolyloxy)ethyl)amino)-2-oxoethyl)-1H-pyrazol-4-yl)propanamide] | > 50
CN(CCOc1ccncc1)C(=O)Cn1cc(NC(=O)CCOc2ccccc2F)cn1 [Compound 55] | < 30
Cc1ccc(OCCC(=O)Nc2cnn(CC(=O)N(C)CCOc3ccc(C)c(C(F)(F)F)c3)c2)c(F)c1 [Compound 79] | < 30
Cc1ccc(OCCN(C)C(=O)Cn2cc(NC(=O)CNCc3cccnc3N)cn2)cc1 [Compound 83] | < 30
CN(CCOc1ccc(C#N)cc1)C(=O)Cn1cc(NC(=O)CCOc2ccccc2)cn1 [Compound 25] | < 30
Cc1ccc(OCCN(C)C(=O)Cn2cc(NC(=O)CCNc3ccncc3)cn2)cc1 [Compound 155] | < 30
COc1ccc(NCCC(=O)Nc2cnn(CC(=O)N(C)CCOc3ccc(C)cc3)c2)c(C)n1 [Compound 197] | 30 to 50
Cc1ccc(OCCN(C)C(=O)Cn2cc(NC(=O)[C@H](C)CNc3ccc(F)nc3C)cn2)cc1 [Compound 170] | 30 to 50
Cc1ccc(OCCN(C)C(=O)Cn2cc(NC(=O)CCNc3ccc(C)cn3)cn2)cc1 [Compound 126] | < 30
